Entries after “also recorded” stand apart in the source; their conditions may differ.
How the values were obtained:
[1] = system: HeLa, KB, A549 and Z310 cells; assay: GFP transfection; assay type: cell-based; conditions: GFP plasmid
Experimental: The transfection with GFP (green fluorescence plasmid) on different cell lines was the same as that with luciferase plasmid. For analysis, cells were washed with PBS, trypsinized and pelleted at 300×g for 5 min at 4° C. The pellet was resuspended in 0.3 mL propidium iodide (PI) solution (1 μg/mL in 0.5% BSA in PBS), kept on ice and analyzed using flow cytometry, MACSQuant Analyzer (Miltenyi Biotec Inc., Auburn, Calif.). Intact cells were identified using the forward and side scatter data. The resulting cell population was gated into GFP+/PI+, GFP+/PI−, GFP−/PI+ and GFP−/PI− based on the green fluorescence and PI intensity from the control samples (cells transfected without the polymers but DNA only) and reported as the mean percentage of cell population that is GFP+/PI− including standard deviation (SD). All experiments were conducted in triplicate.

human red blood cells = assay: Hemolysis assay (acid-triggered membrane-lytic activity); assay type: cell-based
Experimental: Hemolysis assay was used to evaluate the acid-triggered membrane-lytic activity of the synthesized materials at pH 7.4 (extracellular pH) and 5.7 (endosomal pH). Briefly, plasma from human blood was removed by centrifugation. The red blood cells were washed three times with 150 mM NaCl, and resuspended into phosphate buffer (PB) at pH 7.4 or 5.7. The polymers at various concentrations ([…]) and 1% Triton X-100 as control, were added to the RBC suspensions in a 96-well conical plate and was allowed to incubate for 1 h at 37° C. After centrifugation, the released hemoglobin within the supernatant was measured by UV at 541 nm. Percent hemolysis was calculated relative to Triton X-100. Experiments were performed in triplicate.

[2] = Assembly behavior of VIPER by TEM imaging and DLS analysis; assay type: physicochemical
Excerpt: To verify this hypothesized mechanism, the assembly behavior of VIPER at pH 7.4 and pH 5.7 was monitored by both transmission electron microscopy (TEM) imaging and dynamic light scattering (DLS) analysis. VIPER assembles into uniform spherical nanoparticles with diameter around 30 nm at pH 7.4 (FIGS. 2A and C for TEM and DLS, respectively).
The morphology of polymers and polyplexes under dried state were imaged on a JEOL 1140 TEM at an acceleration voltage of 100 kV. In order to observe the morphology of polymer assemblies under different pHs, the polymer solutions (1 mg/mL, in distilled water) were diluted with PB to pH 7.4 and 5.7. Then the resulting solutions (10 μL) were deposited on the top of the 400-mesh formvar/copper grids and incubated at room temperature for 30 min. After staining with uranyl acetate, the grids were allowed to air dry overnight. The preparation of polyplexes samples were the same as polymer samples.

[3] = system: HeLa, KB, A549 and Z310 cells; assay: In vitro transfection with luciferase plasmid; assay type: cell-based
Experimental: HeLa, KB, Z310 and A549 cells were seeded at a density of 25,000 cells/well in complete cell culture medium in a 24-well plate. Cells were firstly incubated at 37° C., 5% CO2 for 24 h. Polyplexes were prepared at different N/P ratios using 0.5 μg of pCMV-Luc2 pDNA in 10 μL total volume. Each sample was diluted to 200 μL with complete cell culture medium. The cells were rinsed once with PBS, followed by the addition of transfection solution. After incubation for 4 h, cells were washed with PBS twice and the polyplexes solution was replaced with complete cell culture medium. After additional 20 h incubation, luciferase activity was quantified with a luciferase assay kit (Promega Corp, Fitchburg, Wis.) according to the manufacturer's instruction, except that a freeze-thaw cycle at −80 OC was included after the addition of the lysis buffer to ensure complete cell lysis. Luminescence intensity was measured on the plate reader with integration for 1 s. The total protein content in each well was measured by a BCA Protein Assay Kit (Thermo Scientific, Rockford, Ill.) according to the manufacturer's instruction so that the luciferase activity was normalized to the total protein content in each well. Each sample was tested with a sample size (n)=3. The N/P ratio used for bPEI is 5, which was previous determined to show optimized transfection efficiency. […]

Substance: P(OEGMA11-DMAEMA56)-b-p(DIPAMA33-PDSEMA-g-melittin)1) [VIPER]
- fold more transfected cells compared to CP [1]: 13- to 60 fold
- fold more transfected cells compared to bPEI [1]: 11- to 46 fold
- transfection efficiency, GFP+ cells ([1]; range over cell lines): 36-77%
- concentration for 50% lysis (human red blood cells; pH 5.7): 30 µg/mL
- concentration for complete lysis (human red blood cells; pH 5.7): 120 µg/mL
- cell lysis (human red blood cells; pH 7.4, VIPER concentrations as high as 240 μg/mL): no significant cell lysis; also recorded: minimal membrane-lytic activity
- assemblies observed ([2]; pH 5.7): no assemblies were observed
- diameter of nanoparticles ([2]; pH 7.4): around 30 nm
- transfection efficiency compared to optimized LF formulations ([3]; HeLa, KB and Z310 cells): improved transfection efficiency
- luciferase activity compared to CP and bPEI ([3]; all tested cell lines): orders of magnitude higher

Source: patent US11305021B2, “Membrane-lytic block copolymers” (UNIVERSITY OF WASHINGTON, priority 2016, dated 2022)
